The test system of one experiment is MUC1-wt. Nature of the experiment: High-content imaging assay of MUC1-wt total cytoplasm intensity in P cells. The format is cell-based. Conditions: for EC50: MUC1-wt total cytoplasm intensity, P cells, 48 hr incubation; for WT ECMax: MUC1-wt, DMSO = 0, JQ1 (250 nM) = −100% activity. The procedure:
(§1) P cells were seeded 24 hr prior to compound treatment at a density of 12,000 cells/well in 384 well Cell Carrier Ultra plates (6057308, Perkin Elmer), pre-coated with 0.25 mg/mL Synthemax 11 SC Substrate (3535, Corning). Compounds were used at 5 doses (35, 3.5, 0.35, 0.035 and 0.0035 μM) for the primary screen and 10 doses (16, 5.6, 1.8, 0.6, 0.21, 0.07, 0.02, 0.008, 0.002 and 0.0008 μM) for the following screens. The compounds, in two replicates, were transferred from compound source plates to the cell plates using the HighRes Pin Tool. DMSO was used as a negative control and JQ1 (250 nM) (a bromodomain inhibitor) was chosen as a positive control, based on earlier studies showing its potent effect on reducing total MUC1 mRNA levels (data not shown). After 48 hr incubation, cells were fixed for 20 min in 4% PFA (Electron Microscopy Sciences) in PBS, washed twice, then permeabilized (10 min) with 0.5% Triton-X100 (X100-100MVL, Sigma-Aldrich) in PBS and washed once more. Cells were blocked for 10 min at RT with Blocking solution (100 mM Tris HCL pH8; l150 mM NaCL; 5 g/L Blocking Reagent [11096176001, Roche]), then incubated 90 min at RT with one of the following primary antibodies in Roche Blocking solution: 1:500, monoclonal Fab-A-V5H anti-MUC1-fs, AbD22655.2, Bio-Rad; 1:2000, monoclonal mouse anti-MUC1 (214D4), 05-652-KC, Millipore; 1:1000, monoclonal, Rabbit anti-GM130 (D6B1) XP, 12480, Cell signaling technology. The primary antibody cocktail was incubated at RT for 1.5 hr, followed by four PBS wash cycles. The secondary antibody cocktail contained four components that were all prepared at a 1:1000 dilution in the Roche blocking solution and consisted of Alexa Fluor® 488-conjugated AffiniPure F(ab′)2 Fragment Goat anti-Human IgG, 109-546-097, Jackson Immunoresearch; Alexa Fluor® 647-conjugated Goat anti-Rabbit IgG, A-21246, Thermo Fisher Scientific®; Alexa Fluor® 546 Goat anti-mouse IgG, A-21123, Thermo Fisher Scientific® and Hoechst 33342 stain (62249, Thermo Fisher Scientific®). The secondary antibody cocktail was incubated at RT for 45 min, followed by four PBS wash cycles. Finally, plates were sealed with a Plate Loc plate and stored in Liconic incubator at 10° C. until imaging. Following image analysis, three parameters were selected, i) MUC1-fs and ii) MUC1-wt total cytoplasm intensity (averaged per cell) and iii) cell number as was detected by Hoechst 33342 stained nuclei. The levels of MUC1-fs and MUC1-wt found following DMSO and JQ1 were defined as 0 and −100% activity, respectively. The values obtained for all compounds were normalized accordingly. Cell number was normalized to DMSO control.
(§2) The pure enantiomers were profiled in the high-content imaging assay for the ability to reduce the amount of FS MUC1 protein in the cytoplasm (Table 48) following the procedure of Example 4.

For the next experiment, the system named is MUC1-fs. Nature of the experiment: High-content imaging assay of MUC1-fs total cytoplasm intensity in P cells. The format is cell-based. The settings on record: for pEC50: MUC1-fs total cytoplasm intensity, P cells, 48 hr incubation; for ECMax: MUC1-fs, DMSO = 0, JQ1 (250 nM) = −100% activity. The procedure: as §1, §2

Results on 13 compounds are retold here after patent US20240116850A1, “COMPOSITIONS AND METHODS RELATED TO BICYCLO[2.2.1] HEPTANAMINE-CONTAINING COMPOUNDS” (The Broad Institute, Inc., priority 2020, published 2024).

What is called EC50 is the concentration that produces a half-maximal response. Broadly, the pEC50 is −log10 of the EC50, conventionally taken in molar units. Low readings indicate a large EC50, high ones a small EC50.

pEC50: −log10 of the molar value.

Regarding `CC(C)C[C@H]1[C@H]2CC[C@H](C2)[C@@H]1N.Cl` (single isomer, unassigned) [Compound 112-P1], in the experiment on MUC1-wt, the concentration for a half-maximal effect (EC50) was under 32 µM and the “WT ECMax” value came to 9.15%. For the same compound, in the experiment on MUC1-fs, the pEC50 was under 4.49 and the ECMax is 26.46%.

In the case of `CC(C)C[C@@H]1[C@@H]2CC[C@@H](C2)[C@H]1N.Cl` (single isomer, unassigned) [Compound 112-P2], in the experiment on MUC1-wt, the concentration giving a half-maximal response (EC50) was over 32 µM and the “WT ECMax” value was found to be 7.52%. In the experiment on MUC1-fs, the negative logarithm of the EC50 (pEC50) is under 4.49 and the ECMax was found to be 13.14%.

For the compound `Cl.N[C@@H]1[C@@H]2CC[C@@H](C2)[C@H]1C1CCC1` (single isomer, unassigned) [Compound 113-P1], in the experiment with MUC1-wt, the concentration giving a half-maximal response (EC50) is over 32 µM and the “WT ECMax” value is −9.71%. For the same compound, in the experiment on MUC1-fs, the pEC50 was under 4.49 and the ECMax is −13.24%.

With `Cl.N[C@H]1[C@@H]2CC[C@@H](C2)[C@@H]1C1CCC1` (single isomer, unassigned) [Compound 114-P1], in the experiment with MUC1-wt, the concentration giving a half-maximal response (EC50) is over 32 µM and the “WT ECMax” value was 5.99%. For the same compound, in the experiment on MUC1-fs, the pEC50 is 4.52 and the ECMax is −28.1%.

Take `Cl.N[C@@H]1[C@H]2CC[C@H](C2)[C@H]1C1CCC1` (single isomer, unassigned) [Compound 114-P2]: in the experiment with MUC1-wt, the EC50 is over 32 µM and the “WT ECMax” value is 9.94%. Besides, in the experiment with MUC1-fs, the pEC50 was under 4.49 and the ECMax is listed as −15.43%.

`Cl.N[C@@H]1[C@@H]2CC[C@@H](C2)[C@H]1C1CCCC1` (single isomer, unassigned) [Compound 116-P1]: in the experiment on MUC1-wt, the concentration for a half-maximal effect (EC50) is over 32 µM and the “WT ECMax” value is on record as 18.63%. Besides, in the experiment with MUC1-fs, the pEC50 was under 4.49 and the ECMax was −10.6%.

Consider `Cl.N[C@H]1[C@H]2CC[C@H](C2)[C@@H]1C1CCCC1` (single isomer, unassigned) [Compound 116-P2], for which, in the experiment with MUC1-wt, the EC50 was over 32 µM and the “WT ECMax” value was −19.89%. Besides, in the experiment with MUC1-fs, the pEC50 was under 4.49 and the ECMax is given as −16.96%.

Take `Cl.N[C@H]1[C@@H]2CC[C@@H](C2)[C@@H]1C1CCCC1` (single isomer, unassigned) [Compound 117-P1]: in the experiment with MUC1-wt, the EC50 was over 32 µM and the “WT ECMax” value worked out at 7.72%. For the same compound, in the experiment on MUC1-fs, the pEC50 is 4.59 and the ECMax was −16.91%.

Regarding `Cl.N[C@@H]1[C@H]2CC[C@H](C2)[C@H]1C1CCCC1` (single isomer, unassigned) [Compound 117-P2], in the experiment with MUC1-wt, the 50% effective concentration (EC50) is over 32 µM and the “WT ECMax” value is listed as −15.43%. In addition, in the experiment with MUC1-fs, the pEC50 was under 4.49 and the ECMax was −15.88%.

As to `Cl.N[C@@H]1[C@@H]2CC[C@@H](C2)[C@H]1C1CCCCC1` (single isomer, unassigned) [Compound 118-P1], in the experiment with MUC1-wt, the EC50 is over 32 µM and the “WT ECMax” value amounted to 9.54%. Further, in the experiment with MUC1-fs, the negative logarithm of the EC50 (pEC50) is under 4.49 and the ECMax is −7.97%.

Take `Cl.N[C@H]1[C@H]2CC[C@H](C2)[C@@H]1C1CCCCC1` (single isomer, unassigned) [Compound 118-P2]: in the experiment with MUC1-wt, the EC50 is over 32 µM and the “WT ECMax” value came to 0%. Further, in the experiment with MUC1-fs, the pEC50 was under 4.49 and the ECMax stood at 0%.

In the case of `Cl.N[C@H]1[C@@H]2CC[C@@H](C2)[C@@H]1C1CCCCC1` (single isomer, unassigned) [Compound 119-P1], in the experiment on MUC1-wt, the 50% effective concentration (EC50) is over 32 µM and the “WT ECMax” value was −14.31%. Besides, in the experiment with MUC1-fs, the pEC50 is under 4.49 and the ECMax is given as −14.14%.

As for `Cl.N[C@@H]1[C@H]2CC[C@H](C2)[C@H]1C1CCCCC1` (single isomer, unassigned) [Compound 119-P2], in the experiment on MUC1-wt, the concentration giving a half-maximal response (EC50) was over 32 µM and the “WT ECMax” value is reported as 0%. Also, in the experiment with MUC1-fs, the negative-log EC50 (pEC50) was under 4.49 and the ECMax was 0%.
